These results are taken from patent publication US20130041330A1, “MICRO-NEEDLE DEVICE AND PREPARATION METHOD” (HISAMITSU PHARMACEUTICAL CO., INC., priority 2010, published 2013).

Series [1] can be described thus: Viscosity measurement of octreotide acetate physiologically active composition (micron sample viscometer). It counts as physicochemical. Particulars: 25° C. The procedure:
The octreotide acetate concentration and the propylene glycol or glycerin concentration were adjusted as shown in Table 3 and Table 4 to prepare a physiologically active composition. The viscosity of the obtained physiologically active composition was measured ten times with a micron sample viscometer (RHEOSENSE INC., Micron Sample-Viscometer/Rheometer-on-a-chip VROCTM), and the mean value was calculated to be shown in Table 3 and Table 4.

A short description of series [2]: Viscosity imparting test in nonaqueous formulation (polymer compound solubility and viscosity). It counts as physicochemical. The following applies: 25° C. The procedure:
With respect to each solvent of propylene glycol and glycerin, polymer compounds shown in Table 5 and Table 6 were added to prepare mixed solutions. Each concentration of the polymer compounds was designed in consideration of the molecular weight and the like. […] Separately, the viscosity of the mixed solution or the solution after the stirring was determined with a micron sample viscometer at 25° C.

On to `C[C@@H](O)[C@@H]1NC(=O)[C@H](CCCCN)NC(=O)[C@@H](Cc2c[nH]c3ccccc23)NC(=O)[C@H](Cc2ccccc2)NC(=O)[C@@H](NC(=O)[C@H](N)Cc2ccccc2)CSSC[C@@H](C(=O)N[C@H](CO)[C@@H](C)O)NC1=O` [Octreotide acetate], for which the “Viscosity Avg.” value in series [1] (octreotide acetate 20 / glycerin 80 % by weight) is 2,900 cps; in series [1] (octreotide acetate 20 / propylene glycol 80 % by weight) it was 200 cps; in series [1] (octreotide acetate 30 / glycerin 70 % by weight) it was 9,000 cps; in series [1] (octreotide acetate 35 / glycerin 65 % by weight), 12,000 cps; in series [1] (octreotide acetate 40 / glycerin 60 % by weight), 15,000 cps; in series [1] (octreotide acetate 40 / propylene glycol 60 % by weight), 1,600 cps. Moreover, the “Viscosity Avg.” value in series [1] (octreotide acetate 50 / glycerin 50 % by weight) is 21,000 cps; in series [1] (octreotide acetate 50 / propylene glycol 50 % by weight) it was 5,400 cps; in series [1] (octreotide acetate 60 / glycerin 40 % by weight), 27,000 cps; in series [1] (octreotide acetate 60 / propylene glycol 40 % by weight) it was 15,000 cps; in series [1] (octreotide acetate 70 / propylene glycol 30 % by weight) it was 45,000 cps; in series [1] (octreotide acetate 80 / propylene glycol 20 % by weight), 133,000 cps.

Take Protamine: the Viscosity in series [2] (glycerin, additive concentration 0.5 % by mass) is given as 1,442 mPa · s; in series [2] (propylene glycol, additive concentration 1.0 % by mass), 53 mPa · s.
